Assay results taken from patent US5235045A, “Non-azo naphthalimide dyes” (priority 1992, dated 1993).
Like-named read-outs stand apart in the source and are kept apart here.

Assays:
H9 cells = test: Effect of Ed6Br and 420 nm light on H9 cells (Trypan Blue); type: cell-based, human; design: live cells / dead cells: unit not given here
Method: H9 cells (an immortal human T-cell lymphoma) were cultured in RPMI-1640 medium containing 10% additional fetal calf serum hold in air with a 5% CO2 atmosphere at 37.5° C. to a cell density in the range of 10^5 -10^7 per ml. Cells were, harvested by centrifugation and six 3ml. […] The remaining 3 samples wrapped in aluminum foil were handled identically but not irradiated. Immediately after irradiation, the cells in all samples were sedimented by centrifugation at 450 x g for 10 minutes and the cell pellets individually resuspended to the original 3 ml volume of RPMI-1640 containing an additional 10% fetal calf serum plus Gentamycin antibiotic. The samples were incubated for 24 hr. under normal culture conditions cited above. Cell viability was assessed by Trypan Blue dye exclusion counts using a standard hemocytometer after 24 hr incubation. […]

[1] = Bleaching in distearoylphosphatidyl choline vesicles; type: physicochemical; conditions: irradiated vesicles
Method: The dye was incorporated into synthetic vesicles as described above. The vesicles were irradiated with a 150-W Oriel xenon arc lamp at a distance of 4 cm from the lens at a thermostated temperature of 20° C. The change in fluorescence intensity with time was determined above, and the results plotted as a standard first order plot.

[2] = tested on: various individual protein preparations; test: Protein cross-linking with DiEd6Br and light (gel electrophoresis, general); type: biochemical
Source text: Concomitant with the appearance of the heavier species with photoillumination with the decrease in intensity of electromigrated bands of the initially present protein.

[3] = Tissue bonding of swine dura mater with DiEd6Br and light
Source text: (§1) Bonding together of the overlapping surfaces of two strips of swine dura mater and of two thin slices of beef muscle with application of DiEd6Br in Cremophor EL as a carrier and irradiation with 420 # 5 nm light filtered from a xenon arc lamp were studied.
Strips approximately 3×0.5 cm in dimension were cut from freshly harvested swine cranial dura mater, washed with 70% ethanol/water and blotted to dryness with standard chemical filter paper. External faces of each member of two pairs of strips were coated with a stock solution of Cremophor EL saturated at room temperature with DiEd6Br (approximately 2.5 millimolar), overlapped 1 cm with long axes parallel, and clamped between two Pyrex glass slides with edges of the slide-tissue-slide sandwich sealed with Parafilm. One sample was irradiated with 420 # 5 nm light of 25 mW/cm^2 irradiance for […]. at room temperature to give a total light fluence of approximately 1800 J/cm^2. The companion sample was wrapped in aluminum foil for light shielding and placed alongside the irradiated sample for the duration of the experiment.
Following their respective irradiation or being held in the dark in similar temperature ambience, one end of a strip of each sample was clamped and from the other a Styrofoam container was hung by a clamp and fine suspension wires (weight of clamp plus container plus wires=33.3 gm). Weights (10 gm each) were added gently in a sequential fashion to give a total weight of 296.3 gm upon which the strip is separated at their interface within the overlapped region of the irradiated sample. Strips of the un-irradiated sample separated immediately at their interface under the 33.3 gm loading of the "weighing" container. […] Elongation was approximately 50% at shearing of the interface.

[4] = tested on: Herpes simplex virus type 1; test: Effect of DiEd6Br and light on aqueous suspensions of HSV-1 (plaque assay); type: cell-based, MacIntyre strain
[5] = Tissue bonding of beef muscle strips with DiEd6Br and light; conditions: 0.1 millimolar
Source text: as §1
Thin strips approximately 10 cm long, 1 cm wide, and 0.05-0.1 cm thick were sliced from beef steak obtained from a local meat market. Surfaces of the strips of two sample pairs were coated with a stock solution of DiEd6Br in Cremophor EL (0.1 millimolar concentration) and placed together to give approximately 2 cm overlap. One overlapping strip sample was irradiated for 24 hours with water-filtered (IR spectrum absorber) light from a 150 w xenon arc lamp. Beam diameter incident on the sample was approximately 3 cm. The other sample was wrapped in aluminum foil, placed alongside the irradiated sample, and served as dark control.

[6] = tested on: Human High Density Lipoprotein (HDL), Apoprotein I; test: Protein crosslinking with DiEd6Br: HDL; type: biochemical; conditions: 25.0 μM, 400 J/cm^2
[7] = 5 μM, irradiated 10 J/cm^2, 420 nm
[8] = 25 μM, irradiated 10 J/cm^2, 420 nm

For CCCCCCNc1c(Br)cc2c3c(cccc13)C(=O)N(CCCCCC)C2=O [Compound VII, 3-bromo-4-(hexyl)amino-N-hexyl-1,8-naphthalimide], the Cells/ml (H9 cells; 5 μM, dark) was 7.70 × 10^5 Cells/ml, the “dead cells” value (H9 cells; 5 μM, dark) was 12 and the “live cells” value (H9 cells; 5 μM, dark) was 77. For the same molecule, the Cells/ml (H9 cells; [7]) was 0.0 Cells/ml, the “dead cells” value (H9 cells; [7]) was 47 and the “live cells” value (H9 cells; [7]) was 0. The Cells/ml (H9 cells; 25 μM, dark) was 9.9 × 10^5 Cells/ml, the “dead cells” value (H9 cells; 25 μM, dark) was 11 and the “live cells” value (H9 cells; 25 μM, dark) was 99. The Cells/ml (H9 cells; [8]) was 0.0 Cells/ml, the “dead cells” value (H9 cells; [8]) was 41 and the “live cells” value (H9 cells; [8]) was 0. For the same molecule, the “H9 cells inactivated or killed” value (H9 cells; 5 mM or greater (so in the source), activated by light, 1440 min) was about 100%, the cytotoxicity at 25 µM (H9 cells; Homo sapiens, H9, 24 h, 25 µM, dark, printed approximately 10% or less, read-out: cells inactivated in absence of light) was at most 10% and the viability at 5 µM (H9 cells; Homo sapiens, H9, light or radiation study, 24 h, 5 μM, irradiated 10 J/cm^2, 420 nm) was 0%. For the same molecule, the viability at 25 µM (H9 cells; Homo sapiens, H9, light or radiation study, 24 h, 25 μM, irradiated 10 J/cm^2, 420 nm) was 0%, the bleaching [1] was “do not bleach” and the “photodegradation of the dye” value [1] was “only very slow photodegradation”.
In the case of CCCCCCN1C(=O)c2cccc3c(NCCNC(=O)CCCCC(=O)NCCNc4c(Br)cc5c6c(cccc46)C(=O)N(CCCCCC)C5=O)c(Br)cc(c23)C1=O [Compound XLIV], the “heavier molecular species in absence of light” value ([2]; no light) is reported as “complete absence of these species”, the heavier molecular species ([2]; photoirradiation nominally 420 nm) is reported as “formation of slower electromigrating, thus heavier, molecular species” and the deformation after separation ([3]; irradiated) is reported as “no plastic deformation”. The “elongation at shearing of the interface” value ([3]; irradiated) was “approximately 50%”, the “total weight at separation of strips” value ([3]; irradiated, approximately 1800 J/cm^2) was 296.3 gm and the “loading at which strips separated immediately” value ([3]; un-irradiated) was at most 33.3 gm. The PFU/ml ([4]; 2.5 μM, not irradiated) was 1.3 × 10^6 PFU/ml, the PFU/ml ([4]; 10 μM, not irradiated) was 1.2 × 10^6 PFU/ml and the PFU/ml ([4]; .156 μM, not irradiated) was 1.1 × 10^6 PFU/ml. For the same molecule, the PFU/ml ([4]; .625 μM, not irradiated) was 1.0 × 10^6 PFU/ml, the log reduction at 2.5 µM ([4]; Human alphaherpesvirus 1, light or radiation study, 2.5 μM, not irradiated, read-out: Log10 Reduction) was 0 and the log reduction at 10 µM ([4]; Human alphaherpesvirus 1, light or radiation study, 10 μM, not irradiated, read-out: Log10 Reduction) was 0.0348. The log reduction at 0.156 µM ([4]; Human alphaherpesvirus 1, light or radiation study, .156 μM, not irradiated, read-out: Log10 Reduction) was 0.0725, the log reduction at 0.625 µM ([4]; Human alphaherpesvirus 1, light or radiation study, .625 μM, not irradiated, read-out: Log10 Reduction) was 0.114 and the log reduction at 2.5 µM ([4]; Human alphaherpesvirus 1, light or radiation study, Test #1, 2.5 μM, 20 J/cm2, 420 nm, read-out: Log10 Reduction) was 6. The log reduction at 10 µM ([4]; Human alphaherpesvirus 1, light or radiation study, Test #1, 10 μM, 20 J/cm2, 420 nm, read-out: Log10 Reduction) was 6, the log reduction at 0.156 µM ([4]; Human alphaherpesvirus 1, light or radiation study, Test #1, .156 μM, 20 J/cm2, 420 nm, read-out: Log10 Reduction) was 6 and the log reduction at 0.625 µM ([4]; Human alphaherpesvirus 1, light or radiation study, Test #1, .625 μM, 20 J/cm2, 420 nm, read-out: Log10 Reduction) was 6. For the same molecule, the log reduction at 0.0099 µM ([4]; Human alphaherpesvirus 1, light or radiation study, Test #2, .0099 μM, 20 J/cm2, 420 nm, read-out: Log10 Reduction) was 3.27, the log reduction at 0.0195 µM ([4]; Human alphaherpesvirus 1, light or radiation study, Test #2, .0195 μM, 20 J/cm2, 420 nm, read-out: Log10 Reduction) was 4.24 and the log reduction at 0.039 µM ([4]; Human alphaherpesvirus 1, light or radiation study, Test #2, .039 μM, 20 J/cm2, 420 nm, read-out: Log10 Reduction) was 4.87. For the same molecule, the log reduction at 0.078 µM ([4]; Human alphaherpesvirus 1, light or radiation study, Test #2, .078 μM, 20 J/cm2, 420 nm, read-out: Log10 Reduction) was 5.87, the log reduction at 0.156 µM ([4]; Human alphaherpesvirus 1, light or radiation study, Test #2, .156 μM, 20 J/cm2, 420 nm, read-out: Log10 Reduction) was 5.87 and the PFU/ml ([4]; Test #1, 2.5 μM, 20 J/cm2, 420 nm) was 0 PFU/ml. The PFU/ml ([4]; Test #1, 10 μM, 20 J/cm2, 420 nm) was 0 PFU/ml, the PFU/ml ([4]; Test #1, .156 μM, 20 J/cm2, 420 nm) was 0 PFU/ml and the PFU/ml ([4]; Test #1, .625 μM, 20 J/cm2, 420 nm) was 0 PFU/ml. For the same molecule, the PFU/ml ([4]; Test #2, .0099 μM, 20 J/cm2, 420 nm) was 4.0 × 10^2 PFU/ml, the PFU/ml ([4]; Test #2, .0195 μM, 20 J/cm2, 420 nm) was 4.3 × 10^1 PFU/ml and the PFU/ml ([4]; Test #2, .039 μM, 20 J/cm2, 420 nm) was 9.9 × 10^0 PFU/ml. For the same molecule, the PFU/ml ([4]; Test #2, .078 μM, 20 J/cm2, 420 nm) was 0 PFU/ml, the PFU/ml ([4]; Test #2, .156 μM, 20 J/cm2, 420 nm) was 0 PFU/ml and the “kill of HSV-1” value ([4]; as low as 0.0195 mM, 420 nm, 2.5% or less of serum proteins) was over 99.99%. For the same molecule, the bonding of strips ([5]; dark control) was “separated under their own weight”, the bonding of strips ([5]; irradiated 24 hours) was “discernable tactile finger pressure was felt when two hands were used to pull the irradiated strip apart, indicating bonding of the strip surface” and the “Inferred Crosslinked Species” value ([6]; Cremophor EL) was 8 Apopro-. For the same molecule, the “Inferred Crosslinked Species, Gel mw” value ([6]; 8 Apoprotein I units) was 141 kD.
